Results taken from PMC7504039, “Tetrapeptide Ac-HAEE-NH2 Protects α4β2 nAChR from Inhibition by Aβ” (International Journal of Molecular Sciences, 2020).
“Also recorded” adds a separate entry of the source. Read-outs that look alike come from different tables or passages of the source. Where a SMILES comes first, the peptide text is derived from it.

Key:
[1] = target: T1, immobilized Aβ16 (Homo sapiens, UniProt P05067); test: Direct binding assay: surface plasmon resonance, tetrapeptides over immobilized Aβ16-G4-C; details: for Ka × 10^-2 M^-1: 10 mM HEPES pH 6.8, Ka = kon/koff, mean±SD of three independent measurements; for koff: read-out: koff × 10^-3 s^-1
T1 construct: purchased Biopeptide (San Diego, CA, USA); host or cells: chemical synthesis
Protocol: Surface plasmon resonance (SPR) was utilized to detect the direct binding of the tetrapeptides to immobilized Aβ16-G4-C. All SPR experiments were carried out on a BIAcore T100 instrument (GE Healthcare, IL, USA). Research grade sensor chips CM5 carrying the hydrophilic carboxymethylated dextran matrix, HEPES Buffered Saline (HBS) buffer (10 mM HEPES (4-(2-hydroxyethyl)-1-piperazineethanesulfonic acid)), pH 7.4, 150 mM NaCl, 3 mM EDTA, 0.005% surfactant P20), 1-ethyl-3-(3-dimethylaminopropyl)-carbodiimide (EDC), N-hydroxysuccinimide (NHS), 2-(2-pyridinyldithio)-ethaneamine (PDEA), and cysteine were purchased from Biacore (GE, Boston, MA, USA). All other chemicals and solvents were of HPLC-grade or better and were obtained from MilliporeSigma (St. Louis, MO, USA). All buffers were filtered (0.45 μm, nylon) prior to use.
Attachment of the synthetic peptide Aβ16-G4-C to the CM5 chip was performed according to the thiol bond formation protocol described in the Sensor surface handbook (GE Healthcare, Chicago, IL, USA). The carboxymethyl dextran matrix was activated by injection of a 1:1 mixture of EDC and NHS (30 μL, 400 mM EDC, 100 mM NHS) with the following injection of an 80 mM PDEA solution in 0.1 M sodium borate (pH 8.5). The Aβ16-G4-C solution was then injected into the activated flow cell (0.05 mg/mL peptide in 10 mM sodium acetate buffer, pH 4.5). Unreacted disulfide groups on the CM5 chip surface were capped with a 50 mM cysteine solution in 0.1 M sodium acetate buffer (pH 4.0). The change corresponding to the immobilization of Aβ16-G4-C was 1023 response units (RU). The flow rate used for all immobilization steps was 5 μL/min. An unmodified dextran surface was used as a reference surface.
Then, the binding affinities of the immobilized Aβ16-G4-C to the following peptide-analytes were measured. Samples of Ac-HAEE-NH2 and other tetrapeptides were prepared by dilution of respective stock solutions in the running buffer (10 mM HEPES, pH 6.8). Each analyte was diluted to different concentrations (0 μM, 50 μM, 100 μM, 200 μM, 500 μM, 1000 μM, 1500 μM, 2000 μM) and injected in multichannel mode (volume 50 μL and rate 10 μL/min) during 300 s. Then, the chip surface was exposed to the running buffer without analyte for 120 s. After each injection of the analyte, the surface was regenerated with 5 μL of the regeneration buffer (HBS buffer containing 10 mM HEPES, 3 mM EDTA, 0.005% surfactant P20 and 150 mM NaCl, pH 7.4). The signal from the reference surface was subtracted from the raw data, obtained from the flow cell with the immobilized ligand.
The kinetic rate constants were calculated from the sensorgrams by globally fitting the response curves obtained at various analyte concentrations using the Langmuir model (1:1 binding) in the BIAevaluation 4.1 program. The association (kon) and the dissociation (koff) rate constants were fitted simultaneously (1), dR/dt = kon C (Rmax − R) − koff R(1) where R stands for the biosensor response of the formed complex, C is the concentration of the analyte, and Rmax is the maximal theoretical value of the binding response for a given analyte.
Using the obtained data dissociation (Kd) constant was calculated from the ratios of the association (kon) and dissociation (koff) rate constants: Kd = koff/kon, Ka = kon/koff.

[2] = test system: Aβ; details: previously shown; reference not given; cited from earlier work
[3] = test system: amyloid load in the brains; parameters: method as in PMID 26402624; details: injections; cited from earlier work
[4] = test system: rat α4β2 nAChR; test: Two-electrode voltage clamp in Xenopus laevis oocytes expressing α4β2 nAChR; assay type: cell-based; details: for effect of washout with the peptide on current amplitude after Aβ42: 3 min, after 10 µM Aβ42
Protocol: Two-electrode voltage clamp electrophysiology on the α4β2 nAChR expressed in Xenopus laevis oocytes was performed according to previously published protocols [7]. Stage V ± VI Xenopus laevis oocytes were defolliculated with 1 mg/mL collagenase Type I (Life Technologies, Carlsbad, CA, USA) at room temperature (21–24 °C) for 2 h in Barth’s solution without calcium (88.0 mM NaCl, 1.1 mM KCl, 2.4 mM NaHCO3, 0.8 mM MgSO4, 15.0 mM HEPES/NaOH, pH 7.6). The oocytes were stored in Barth’s solution with calcium for 72–120 h (88.0 mM NaCl, 1.1 mM KCl, 2.4 mM NaHCO3, 0.3 mM Ca(NO3)2, 0.4 mM CaCl2, 0.8 mM MgSO4, 15.0 mM HEPES/NaOH, pH 7.6) supplemented with 63.0 μg/mL penicillin-G sodium salt, 40.0 μg/mL streptomycin sulfate.
Oocytes were injected with 3 ng plasmids coding the rat α4 and β2 nAChR subunits (pcDNA3.1 vector) in a molar ratio of 1:1 using an Auto-Nanoliter Injector NanoJect-2 (Drummond Scientific Company, Broomall, PA, USA) in a total injection volume of 23 nL. After injection, oocytes were incubated at 18 °C in Barth’s solution with calcium for 48–120 h. Electrophysiological recordings were made using a Turbo TEC-03X amplifier (npi electronic GmbH, Tamm, Germany) and WinWCP recording software (University of Strathclyde, Glasgow, UK). Oocytes were placed in a small recording chamber with a working volume of 50 μL and 100 μL of agonist (acetylcholine) solution in Barth’s buffer were applied to an oocyte. […] To allow receptor recovery from desensitization, the oocytes were superfused for 5–10 min with buffer (1 mL/min) between ligand applications. Electrophysiological recordings were performed at a holding potential of −60 mV.
Data are presented as means of at least three independent experiments ± SD. The comparison of data groups in electrophysiology studies was performed with ordinary one-way ANOVA. Post-hoc analysis was performed with the Tukey test. Shapiro-Wilk test was used to confirm the normality of the dataset. Statistical analysis was performed using GraphPad Prism 8.4.1 software (GraphPad Software Inc., CA, USA).

[5] = target: Aβ16-G4-C, [Ac]-…-[NH2]; test: SPR; Aβ16-G4-C immobilised by thiol coupling on a CM5 chip (1023 RU), BIAcore T100; tetrapeptides injected at 0-2000 μM, 10 μL/min, 300 s; running buffer 10 mM HEPES, pH 6.8; global fit, Langmuir 1:1 model; Kd = koff/kon
[6] = Table S2, SPR, immobilized Aβ16, 25 °C
[7] = Table S2, SPR, immobilized Aβ16, 25 °C, 10 mM HEPES pH 6.8, mean±SD of three independent measurements, read-out: Kd × 10^4 M
[8] = Table S2, SPR, immobilized Aβ16, 25 °C, 10 mM HEPES pH 6.8, mean±SD of three independent measurements
[9] = Table S2, SPR, immobilized Aβ16, 25 °C, 10 mM HEPES pH 6.8, mean±SD of three independent measurements, read-out: kon × M^-1 s^-1
[10] = SPR, immobilized Aβ16, 10 mM HEPES pH 6.8
[11] = SPR, BIAcore T100, Aβ16-G4-C on CM5 chip, running buffer 10 mM HEPES pH 6.8, 1:1 Langmuir global fit, Kd = koff/kon, read-out: dissociation constant Kd

T1 sequence (P05067 with tags, fused parts or gaps limits assumed): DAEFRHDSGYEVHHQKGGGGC

Molecule	Ka × 10^-2 M^-1 [1, 6]	Kd [1, 7] [µM]	koff [1, 8] [s⁻¹]	kon [1, 9] [M⁻¹ s⁻¹]	further results
CC(=O)N[C@@H](CCCCN)C(=O)N[C@@H](C)C(=O)N[C@@H](CC(=O)O)C(=O)N[C@@H](CCC(=O)O)C(N)=O [#15, Ac-KADE-NH2] (Ac-KADE-NH2)	2.2±0.1 × 10^-2 M^-1	4500 ± 300	0.0096 ± 0.0002	2.2 ± 0.1	–
CC(=O)N[C@@H](CC(=O)O)C(=O)N[C@@H](CC(=O)O)C(=O)N[C@@H](C)C(=O)N[C@@H](CCCCN)C(N)=O [#4, Ac-DDAK-NH2] (Ac-DDAK-NH2)	7.3±0.3 × 10^-2 M^-1	1370 ± 50	0.0062 ± 0.0001	4.57 ± 0.09	–
Ac-KAEE-NH2	–	–	–	–	binding to Aβ16 in the SPR assay (in words) [1, 10]: no binding was detected at all
CC(=O)N[C@@H](CCCNC(=N)N)C(=O)N[C@@H](C)C(=O)N[C@@H](CCC(=O)O)C(=O)N[C@@H](CCC(=O)O)C(N)=O [Ac-RAEE-NH2] (Ac-RAEE-NH2)	1.3±0.1 × 10^-2 M^-1	7700 ± 600	0.0112 ± 8e-05	1.5 ± 0.1	binding to Aβ16 in the SPR assay (in words) [1, 10]: two orders of magnitude weaker binding than Ac-HAEE-NH2
CC(=O)N[C@@H](CC(=O)O)C(=O)N[C@@H](CCC(=O)O)C(=O)N[C@@H](C)C(=O)N[C@@H](CCCNC(=N)N)C(N)=O [#12, Ac-DEAR-NH2] (Ac-DEAR-NH2)	5.1±0.2 × 10^-2 M^-1	1980 ± 70	0.00709 ± 9e-05	3.58 ± 0.08	–
CC(=O)N[C@@H](Cc1c[nH]cn1)C(=O)N[C@@H](C)C(=O)N[C@@H](CCC(=O)O)C(=O)N[C@@H](CCC(=O)O)C(N)=O [Ac-HAEE-NH2] (Ac-HAEE-NH2)	110±40 × 10^-2 M^-1	–	3.5e-05 ± 8e-06	–	Kd [1, 11]: 90 µM; kon ([1]; SPR, immobilized Aβ16, 10 mM HEPES pH 6.8, read-out: kon): 0.37 M⁻¹ s⁻¹; zinc-dependent oligomerization of Aβ [2]: prevent zinc-dependent oligomerization of Aβ; amyloid load in the brains of AD model mice [3]: effectively reduce the amyloid load; effect of washout with the peptide on current amplitude after Aβ42 ([4]; 25 µM in washout buffer, 100 µM ACh): did not affect the current amplitude; effect of washout with the peptide on current amplitude after Aβ42 ([4]; 50 µM in washout buffer, 100 µM ACh): less so at 50 µM; effect on Aβ42-induced inhibition when co-applied with Aβ42 ([4]; 100 µM Ac-HAEE-NH2 (10-times molar excess) with 10 µM Aβ42, 3 min pre-incubation, 100 µM ACh): the degree of inhibition was reduced significantly; also recorded: reduced the inhibitory effect of Aβ42 by half; leakage current after washout with peptide-containing buffer ([4]; 100 µM Ac-HAEE-NH2 washout after 10 µM Aβ42 and buffer washout): reduced the leakage current almost to the control values; effect of washout with the peptide on current amplitude after Aβ42 ([4]; 100 µM in washout buffer, 100 µM ACh): fully revoked the inhibition induced by Aβ42; also recorded: most effective at 100 µM; amplitude of ACh-evoked currents after washout with the peptide (over the range tested) ([4]; 25–100 µM in washout buffer after 10 µM Aβ42, 100 µM ACh): dose-dependently returned to the control levels; also recorded: completely restored the receptor response; effect on ACh-evoked current in the absence of Aβ42 ([4]; α4β2 nAChR-expressing oocytes): did not affect ACh-evoked current; currents induced by the peptide itself ([4]; α4β2 nAChR-expressing oocytes, no ACh): did not induce any currents
CC(=O)N[C@@H](CC(=O)O)C(=O)N[C@@H](CC(=O)O)C(=O)N[C@@H](C)C(=O)N[C@@H](Cc1c[nH]cn1)C(N)=O [#2, Ac-DDAH-NH2] (Ac-DDAH-NH2)	–	–	0.0154 ± 0.0001	0.52 ± 0.01	Kd ([1]; read-out: Ka × 10^-2 M^-1 (converted)): 2970 µM
CC(=O)N[C@@H](CCC(=O)O)C(=O)N[C@@H](CC(=O)O)C(=O)N[C@@H](C)C(=O)N[C@@H](CCCNC(=N)N)C(N)=O [#18, Ac-EDAR-NH2] (Ac-EDAR-NH2)	0.28±0.03 × 10^-2 M^-1	–	0.0047 ± 0.0001	0.13 ± 0.01	–
CC(=O)N[C@@H](CCCNC(=N)N)C(=O)N[C@@H](C)C(=O)N[C@@H](CC(=O)O)C(=O)N[C@@H](CC(=O)O)C(N)=O [Ac-RADD-NH2] (Ac-RADD-NH2)	800±100 × 10^-2 M^-1	–	0.00024 ± 4e-05	18.5 ± 0.1	Kd [1, 11]: 13 µM
CC(=O)N[C@@H](Cc1c[nH]cn1)C(=O)N[C@@H](C)C(=O)N[C@@H](CC(=O)O)C(=O)N[C@@H](CC(=O)O)C(N)=O [#1, Ac-HADD-NH2] (Ac-HADD-NH2)	3.08±0.08 × 10^-2 M^-1	3250 ± 90	0.0104 ± 2e-05	3.2 ± 0.08	–
CC(=O)N[C@@H](CCCCN)C(=O)N[C@@H](C)C(=O)N[C@@H](CCC(=O)O)C(=O)N[C@@H](CC(=O)O)C(N)=O [#9, Ac-KAED-NH2] (Ac-KAED-NH2)	3.1±0.6 × 10^-2 M^-1	3300 ± 700	0.019 ± 0.001	5.7 ± 0.9	–
CC(=O)N[C@@H](CCC(=O)O)C(=O)N[C@@H](CC(=O)O)C(=O)N[C@@H](C)C(=O)N[C@@H](CCCCN)C(N)=O [#16, Ac-EDAK-NH2] (Ac-EDAK-NH2)	0.141±0.009 × 10^-2 M^-1	–	0.0097 ± 0.0002	0.136 ± 0.006	–
Ac-HAEE-NH2 [Ac-HAEE-NH2 tetrapeptide]	–	–	–	–	Kd [5]: 90 µM; koff [5]: 4e-05 s⁻¹; kon [5]: 0.37 M⁻¹ s⁻¹
Ac-RADD-NH2 [Ac-RADD-NH2]	–	–	–	–	Kd [5]: 13 µM
